From ChEMBL document CHEMBL1201862, “PubChem BioAssay data set” (2004)
Activity calls are given as the source filed them.

Tests used:
Bcl-2-like protein 10 = Bcl-2-like protein 10 (Homo sapiens, UniProt Q9HD36); assay: Concentration-response of Bcl-B inhibitors by biochemical FP with TR3 (AID 1243); assay type: functional
HeLa = assay: Cytotoxicity counterscreen assay for transcriptional activators of heat shock protein 70 (Hsp70). [Related pubchem assays: 1203, 1252 ]; assay type: functional; details: Homo sapiens;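 further: cells exposed to compound for 16 hours before readout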
[1] = Vero E6 cell cytotoxicity, dose response, cytotoxicity control for non-replicating M. tuberculosis project, secondary assay (AID 492998); assay type: functional, VeroE6; details: Vero C1008
cells = assay type: functional
[2] = target: T1, Neuropeptide Y receptor type 2 (Homo sapiens, UniProt P49146); assay: IC50 for human NPY-Y2 blockade – cell-based, counter-screen for NPY-Y1 antagonist project, dose response (AID 1278); assay type: functional
T1 sequence (P49146 whole entry): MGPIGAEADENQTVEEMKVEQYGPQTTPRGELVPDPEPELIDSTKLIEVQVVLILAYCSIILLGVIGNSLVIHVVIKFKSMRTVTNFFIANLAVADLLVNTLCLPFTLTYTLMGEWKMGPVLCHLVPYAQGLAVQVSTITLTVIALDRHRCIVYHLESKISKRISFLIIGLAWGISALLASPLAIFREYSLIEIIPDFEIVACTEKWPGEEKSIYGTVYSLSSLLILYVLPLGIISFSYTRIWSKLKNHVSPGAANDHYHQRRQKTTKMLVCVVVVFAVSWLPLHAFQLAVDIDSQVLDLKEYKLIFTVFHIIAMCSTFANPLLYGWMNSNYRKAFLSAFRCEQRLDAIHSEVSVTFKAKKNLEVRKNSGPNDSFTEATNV

[3] = target: T2, Neuropeptide Y receptor type 1 (Homo sapiens, UniProt P25929); assay: IC50 of human NPY-Y1 blockers – cell-based, dose response (AID 1277); assay type: functional
T2 sequence (P25929 whole entry): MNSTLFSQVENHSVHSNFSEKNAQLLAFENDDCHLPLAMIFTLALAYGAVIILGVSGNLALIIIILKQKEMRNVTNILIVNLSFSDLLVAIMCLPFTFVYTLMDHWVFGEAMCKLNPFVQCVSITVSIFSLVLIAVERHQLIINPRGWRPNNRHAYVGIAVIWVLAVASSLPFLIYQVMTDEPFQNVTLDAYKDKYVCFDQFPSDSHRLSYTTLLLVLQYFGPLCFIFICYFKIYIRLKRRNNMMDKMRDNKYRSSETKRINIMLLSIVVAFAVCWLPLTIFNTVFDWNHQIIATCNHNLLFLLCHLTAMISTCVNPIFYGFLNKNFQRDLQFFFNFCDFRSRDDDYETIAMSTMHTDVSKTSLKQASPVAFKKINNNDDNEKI

[4] = target: T2, Neuropeptide Y receptor type 1; assay type: functional
[5] = target: T1, Neuropeptide Y receptor type 2; assay type: functional, cell-based
Estrogen receptor = target: T3, Estrogen receptor (Homo sapiens, UniProt P03372); assay: ERα coactivator recruitment enhancers – biochemical, TR-FRET, ERα LBD, dose response (AID 737)
T3 sequence (P03372 whole entry): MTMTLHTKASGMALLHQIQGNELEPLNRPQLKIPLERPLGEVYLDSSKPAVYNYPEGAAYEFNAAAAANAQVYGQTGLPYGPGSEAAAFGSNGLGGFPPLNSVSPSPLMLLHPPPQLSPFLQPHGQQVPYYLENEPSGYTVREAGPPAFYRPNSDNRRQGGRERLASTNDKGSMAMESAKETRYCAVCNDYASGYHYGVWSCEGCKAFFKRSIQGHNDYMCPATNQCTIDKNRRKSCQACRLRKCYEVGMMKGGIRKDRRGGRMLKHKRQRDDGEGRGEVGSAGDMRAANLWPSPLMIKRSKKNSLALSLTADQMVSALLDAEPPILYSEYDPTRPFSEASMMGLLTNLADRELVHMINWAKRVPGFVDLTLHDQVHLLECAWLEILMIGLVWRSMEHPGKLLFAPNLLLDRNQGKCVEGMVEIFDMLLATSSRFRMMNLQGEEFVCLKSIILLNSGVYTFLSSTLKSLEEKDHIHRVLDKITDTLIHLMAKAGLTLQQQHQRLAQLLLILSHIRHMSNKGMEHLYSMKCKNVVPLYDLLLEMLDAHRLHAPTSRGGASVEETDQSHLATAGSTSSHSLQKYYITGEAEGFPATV

[6] = target: Epstein-Barr nuclear antigen 1 (Epstein-Barr virus (strain B95-8) (HHV-4) (Human herpesvirus 4), UniProt P03211); assay: inhibition of EBV nuclear antigen 1 DNA binding – biochemical, fluorescence polarization, 1536-well, dose response (AID 2381); parameters: species or system human gammaherpesvirus 4;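 further: fluorescence polarization of a Cy5 DNA probe bound by EBNA-1 protein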
Sequence of Epstein-Barr nuclear antigen 1 (P03211 whole entry): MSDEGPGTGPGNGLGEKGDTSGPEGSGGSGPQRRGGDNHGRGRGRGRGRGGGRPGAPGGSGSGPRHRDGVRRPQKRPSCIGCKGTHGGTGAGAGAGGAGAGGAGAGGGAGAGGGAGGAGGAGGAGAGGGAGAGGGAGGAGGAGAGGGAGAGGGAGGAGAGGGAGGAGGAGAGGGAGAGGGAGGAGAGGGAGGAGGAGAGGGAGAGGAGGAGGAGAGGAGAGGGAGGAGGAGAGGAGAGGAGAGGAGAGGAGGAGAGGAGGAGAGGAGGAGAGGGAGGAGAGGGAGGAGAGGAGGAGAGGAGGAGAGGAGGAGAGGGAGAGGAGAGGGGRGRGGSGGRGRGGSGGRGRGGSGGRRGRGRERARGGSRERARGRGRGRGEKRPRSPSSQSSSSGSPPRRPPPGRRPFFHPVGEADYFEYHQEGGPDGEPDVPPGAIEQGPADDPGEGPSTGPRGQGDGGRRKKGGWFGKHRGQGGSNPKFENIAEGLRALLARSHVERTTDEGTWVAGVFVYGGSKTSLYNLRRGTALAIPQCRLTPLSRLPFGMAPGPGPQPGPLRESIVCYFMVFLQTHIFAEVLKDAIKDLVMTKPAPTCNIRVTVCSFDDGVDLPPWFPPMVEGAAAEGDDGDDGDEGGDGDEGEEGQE

[7] = target: Lytic switch protein BZLF1 (Epstein-Barr virus (strain B95-8) (HHV-4) (Human herpesvirus 4), UniProt P03206); assay: inhibition of BZLF1 ZTA DNA binding – biochemical, fluorescence polarization, Epstein-Barr virus, 1536-well, counter-screen for EBNA-1 inhibitor project, dose response (AID 2377); parameters: species or system human gammaherpesvirus 4;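 further: fluorescence polarization of Cy5-labelled ZRE DNA probe bound by purified Zta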
Sequence of Lytic switch protein BZLF1 (P03206 whole entry): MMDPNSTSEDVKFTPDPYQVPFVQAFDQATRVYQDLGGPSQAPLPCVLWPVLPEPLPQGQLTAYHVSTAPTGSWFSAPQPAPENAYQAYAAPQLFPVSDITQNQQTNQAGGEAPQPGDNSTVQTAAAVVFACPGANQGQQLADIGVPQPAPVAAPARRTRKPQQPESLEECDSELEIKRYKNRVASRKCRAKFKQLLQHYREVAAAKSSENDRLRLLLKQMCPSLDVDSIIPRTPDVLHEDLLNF

[8] = mitochondrial function rescue without frataxin homolog – Friedreich's ataxia, plus single-dose screen, dose response (AID 1465); assay type: functional;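 further: yeast depleted of Yfh1p frataxin homolog grown on glycerol needing respiration; WST-1 tetrazolium dye reduction as measure of cellular dehydrogenase metabolic activity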
[9] = M. tuberculosis H37Rv growth inhibitors, H37Rv strain (AID 1626); assay type: functional
[10] = Luminescence-based counterscreen assay for KLF5 inhibitors: dose response cell-based high throughput screening assay to identify cytotoxic compounds using the IEC-6 intestinal epithelial cell line. [Related pubchem assays: 1700 (Primary screen.), 1834 (Confirmation screen.), 1858 (Summary AID.), 1905 (Counterscreen.)]; assay type: functional
Trypsin = Trypsin (Sus scrofa, UniProt P00761); assay: trypsin protease activity blockade – biochemical, quenched peptide fluorescence, cherry-pick, selectivity assay for Rce1 protease inhibitor project, dose response (AID 488789)
Sequence of Trypsin (P00761 whole entry): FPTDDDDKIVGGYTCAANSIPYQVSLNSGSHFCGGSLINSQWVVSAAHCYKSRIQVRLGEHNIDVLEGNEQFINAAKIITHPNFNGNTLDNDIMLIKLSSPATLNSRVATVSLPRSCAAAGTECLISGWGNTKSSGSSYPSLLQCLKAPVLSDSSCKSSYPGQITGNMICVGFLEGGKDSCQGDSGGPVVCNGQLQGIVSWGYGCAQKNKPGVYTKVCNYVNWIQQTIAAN

CAAX prenyl protease 2 = target: T4, CAAX prenyl protease 2 (Saccharomyces cerevisiae S288c, UniProt Q03530); assay type: biochemical
T4 sequence (Q03530 whole entry): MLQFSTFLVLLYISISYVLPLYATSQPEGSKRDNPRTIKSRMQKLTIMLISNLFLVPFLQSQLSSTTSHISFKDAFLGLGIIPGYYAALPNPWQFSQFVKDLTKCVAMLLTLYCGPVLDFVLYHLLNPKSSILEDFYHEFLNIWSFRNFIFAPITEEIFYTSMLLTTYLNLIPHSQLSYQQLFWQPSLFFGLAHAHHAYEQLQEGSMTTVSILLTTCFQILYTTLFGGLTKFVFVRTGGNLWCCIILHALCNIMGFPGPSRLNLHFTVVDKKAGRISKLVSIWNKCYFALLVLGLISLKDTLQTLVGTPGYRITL

Caspase-3 = target: T5, Caspase-3 (Homo sapiens, UniProt P42574); assay type: functional;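 further: Dose-response selectivity test against caspase-3 for candidate inhibitors of sentrin-specific proteases (SENPs)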
T5 sequence (P42574 whole entry): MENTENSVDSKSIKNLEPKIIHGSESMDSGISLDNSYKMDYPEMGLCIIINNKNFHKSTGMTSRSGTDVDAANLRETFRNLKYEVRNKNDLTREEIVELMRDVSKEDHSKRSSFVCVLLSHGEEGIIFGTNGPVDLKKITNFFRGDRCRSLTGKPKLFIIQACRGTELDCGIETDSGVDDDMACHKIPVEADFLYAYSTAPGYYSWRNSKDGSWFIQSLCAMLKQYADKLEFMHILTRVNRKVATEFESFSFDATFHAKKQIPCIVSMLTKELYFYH

[11] = target: T6, Sentrin-specific protease 7 (Homo sapiens, UniProt Q9BQF6); assay type: functional;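 further: Luminescence-based dose-response confirmation of ultra-high-throughput screening hits, measuring inhibition of SENP7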
T6 sequence (Q9BQF6 whole entry): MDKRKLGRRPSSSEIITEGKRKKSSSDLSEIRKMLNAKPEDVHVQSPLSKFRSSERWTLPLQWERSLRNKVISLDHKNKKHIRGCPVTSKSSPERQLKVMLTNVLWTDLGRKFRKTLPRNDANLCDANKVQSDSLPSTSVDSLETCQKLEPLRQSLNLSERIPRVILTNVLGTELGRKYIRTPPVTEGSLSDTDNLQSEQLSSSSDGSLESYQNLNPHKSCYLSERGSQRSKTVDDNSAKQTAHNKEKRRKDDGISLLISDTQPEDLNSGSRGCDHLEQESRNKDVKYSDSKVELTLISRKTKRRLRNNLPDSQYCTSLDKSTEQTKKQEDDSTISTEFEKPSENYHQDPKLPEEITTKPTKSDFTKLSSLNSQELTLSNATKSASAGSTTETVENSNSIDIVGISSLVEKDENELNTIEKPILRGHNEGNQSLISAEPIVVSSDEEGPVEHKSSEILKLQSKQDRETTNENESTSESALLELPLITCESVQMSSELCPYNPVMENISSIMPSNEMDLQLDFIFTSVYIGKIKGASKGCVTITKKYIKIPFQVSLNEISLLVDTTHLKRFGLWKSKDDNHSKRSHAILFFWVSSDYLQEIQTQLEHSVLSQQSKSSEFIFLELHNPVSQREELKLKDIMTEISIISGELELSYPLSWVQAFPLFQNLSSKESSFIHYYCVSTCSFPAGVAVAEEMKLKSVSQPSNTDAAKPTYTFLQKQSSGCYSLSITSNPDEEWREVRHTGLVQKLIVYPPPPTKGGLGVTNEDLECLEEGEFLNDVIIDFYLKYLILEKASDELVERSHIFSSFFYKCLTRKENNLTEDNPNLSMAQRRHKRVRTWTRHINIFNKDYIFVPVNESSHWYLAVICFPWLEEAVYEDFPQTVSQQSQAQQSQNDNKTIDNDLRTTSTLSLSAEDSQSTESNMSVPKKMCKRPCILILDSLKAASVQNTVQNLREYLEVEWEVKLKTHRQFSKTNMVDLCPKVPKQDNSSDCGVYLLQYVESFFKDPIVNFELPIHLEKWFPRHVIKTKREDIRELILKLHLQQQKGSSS

[12] = target: T7, Sentrin-specific protease 6 (Homo sapiens, UniProt Q9GZR1); assay type: functional;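 further: Luminescence-based dose-response confirmatory assay of SENP6 inhibition, following up an ultra-high-throughput screen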
T7 sequence (Q9GZR1 whole entry): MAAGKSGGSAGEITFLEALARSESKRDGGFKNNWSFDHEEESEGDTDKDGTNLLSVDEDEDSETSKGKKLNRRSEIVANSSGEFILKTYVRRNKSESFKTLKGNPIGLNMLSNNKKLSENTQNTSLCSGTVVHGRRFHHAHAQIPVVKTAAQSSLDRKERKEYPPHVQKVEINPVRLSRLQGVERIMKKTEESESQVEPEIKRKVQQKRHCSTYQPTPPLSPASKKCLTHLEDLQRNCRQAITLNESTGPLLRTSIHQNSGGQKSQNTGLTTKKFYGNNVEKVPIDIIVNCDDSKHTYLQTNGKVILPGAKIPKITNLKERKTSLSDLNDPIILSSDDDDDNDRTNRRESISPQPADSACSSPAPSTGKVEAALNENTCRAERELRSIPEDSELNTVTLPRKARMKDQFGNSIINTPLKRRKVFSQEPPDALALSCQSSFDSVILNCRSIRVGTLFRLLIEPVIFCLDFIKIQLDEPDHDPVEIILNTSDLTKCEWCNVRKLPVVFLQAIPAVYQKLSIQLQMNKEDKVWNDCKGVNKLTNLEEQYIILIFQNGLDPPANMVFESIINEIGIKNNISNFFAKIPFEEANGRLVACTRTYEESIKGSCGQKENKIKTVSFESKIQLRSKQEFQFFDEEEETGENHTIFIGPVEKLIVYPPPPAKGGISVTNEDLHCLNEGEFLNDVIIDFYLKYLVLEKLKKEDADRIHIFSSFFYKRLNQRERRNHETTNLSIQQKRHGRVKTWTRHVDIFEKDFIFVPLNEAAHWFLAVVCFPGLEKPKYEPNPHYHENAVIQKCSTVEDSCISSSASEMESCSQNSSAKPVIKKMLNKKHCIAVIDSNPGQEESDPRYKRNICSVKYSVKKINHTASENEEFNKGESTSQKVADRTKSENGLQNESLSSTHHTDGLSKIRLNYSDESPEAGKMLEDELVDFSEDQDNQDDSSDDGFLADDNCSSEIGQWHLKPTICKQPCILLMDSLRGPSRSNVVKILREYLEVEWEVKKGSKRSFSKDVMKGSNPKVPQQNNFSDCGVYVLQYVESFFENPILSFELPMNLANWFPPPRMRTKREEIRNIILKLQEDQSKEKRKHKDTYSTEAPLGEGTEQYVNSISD

[13] = target: T8, Sentrin-specific protease 8 (Homo sapiens, UniProt Q96LD8); assay type: functional;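 further: luminescence read-out of SENP8 inhibition, dose-response confirmation following an ultra-high-throughput screen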
T8 sequence (Q96LD8 whole entry): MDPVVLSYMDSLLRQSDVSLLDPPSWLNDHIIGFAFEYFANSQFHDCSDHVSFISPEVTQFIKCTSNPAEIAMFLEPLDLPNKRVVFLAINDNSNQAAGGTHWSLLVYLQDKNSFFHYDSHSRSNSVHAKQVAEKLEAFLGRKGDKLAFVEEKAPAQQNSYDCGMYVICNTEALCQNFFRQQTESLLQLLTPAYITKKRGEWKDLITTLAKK

[14] = blockers of bursicon-stimulated LGR2 cAMP reporter – cell-based, HEK293, CRE-luciferase reporter, cherry pick, set 2, dose response (AID 743343); assay type: functional;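 further: transfected cells were stimulated with diluted bursicon conditioned medium after compound addition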
[15] = blockade of melanocortin 4 receptor signaling – cell-based, plate reader, cherry pick, counter-screen for LGR2 antagonist project, dose response (AID 743444); assay type: functional;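 further: transfected HEK 293 cells stimulated with alpha-MSH peptide; potency of inhibitors of the alpha-MSH evoked signal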
[16] = target: T9, Mannose-6-phosphate isomerase (Homo sapiens, UniProt P34949); assay: MPI enzyme activity inhibition – biochemical, fluorescence intensity, coupled assay, primary screen (AID 1209)
T9 sequence (P34949 whole entry): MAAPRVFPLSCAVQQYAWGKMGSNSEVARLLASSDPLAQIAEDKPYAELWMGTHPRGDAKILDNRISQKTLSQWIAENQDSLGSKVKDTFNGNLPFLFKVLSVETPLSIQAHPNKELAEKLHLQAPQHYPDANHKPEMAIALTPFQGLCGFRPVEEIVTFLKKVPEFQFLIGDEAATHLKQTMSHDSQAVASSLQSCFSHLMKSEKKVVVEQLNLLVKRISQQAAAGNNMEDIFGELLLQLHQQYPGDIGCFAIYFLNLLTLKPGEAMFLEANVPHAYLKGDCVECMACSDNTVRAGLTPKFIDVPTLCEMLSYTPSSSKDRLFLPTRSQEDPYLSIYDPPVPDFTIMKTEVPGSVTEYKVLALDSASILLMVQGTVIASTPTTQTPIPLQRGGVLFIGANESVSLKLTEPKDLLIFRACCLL

[17] = target: T9, Mannose-6-phosphate isomerase; assay: MPI inhibition at elevated mannose 6-phosphate – biochemical, fluorescence intensity, high mannose 6-phosphate, primary screen (AID 1220)
[18] = target: FAD-linked sulfhydryl oxidase ALR (Homo sapiens, UniProt P55789); assay: ALR-catalysed DTT oxidation blockers – biochemical, H2O2 detection, luminescence, cherry-pick, dose response (AID 493248)
Sequence of FAD-linked sulfhydryl oxidase ALR (P55789 whole entry): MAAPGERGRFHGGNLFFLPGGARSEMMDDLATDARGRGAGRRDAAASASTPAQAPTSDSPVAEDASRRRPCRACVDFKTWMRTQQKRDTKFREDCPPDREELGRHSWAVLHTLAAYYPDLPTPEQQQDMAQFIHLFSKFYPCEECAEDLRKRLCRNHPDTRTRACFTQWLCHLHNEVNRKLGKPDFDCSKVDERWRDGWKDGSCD

NADPH oxidase 1 = NADPH oxidase 1 (Homo sapiens, UniProt Q9Y5S8); assay type: functional, cell-based;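 further: Cell-based assay with luminescence read-out, IC50 derived from inhibitor dose-response curves; intracellular ROS from endogenous NOX1 in intact HT29 colon cancer cells; potency of inhibitors that lower the ROS luminescence signal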
Sequence of NADPH oxidase 1 (Q9Y5S8 whole entry): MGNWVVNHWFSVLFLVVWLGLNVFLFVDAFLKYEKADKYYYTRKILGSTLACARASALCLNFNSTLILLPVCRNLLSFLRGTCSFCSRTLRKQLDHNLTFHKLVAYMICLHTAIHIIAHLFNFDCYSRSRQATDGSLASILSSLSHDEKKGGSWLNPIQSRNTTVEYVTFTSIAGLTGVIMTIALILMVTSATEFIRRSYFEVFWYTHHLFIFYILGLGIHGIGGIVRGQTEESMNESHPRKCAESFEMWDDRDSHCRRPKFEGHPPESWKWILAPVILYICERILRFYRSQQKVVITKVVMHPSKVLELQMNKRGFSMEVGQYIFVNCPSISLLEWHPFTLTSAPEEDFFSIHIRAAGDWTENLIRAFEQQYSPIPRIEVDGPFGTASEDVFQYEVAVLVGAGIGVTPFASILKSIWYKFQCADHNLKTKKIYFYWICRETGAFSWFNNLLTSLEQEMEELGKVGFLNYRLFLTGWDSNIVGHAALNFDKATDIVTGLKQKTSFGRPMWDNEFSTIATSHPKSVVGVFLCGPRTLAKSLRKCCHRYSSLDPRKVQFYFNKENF

Sequence of Bcl-2-like protein 10 (Q9HD36 whole entry): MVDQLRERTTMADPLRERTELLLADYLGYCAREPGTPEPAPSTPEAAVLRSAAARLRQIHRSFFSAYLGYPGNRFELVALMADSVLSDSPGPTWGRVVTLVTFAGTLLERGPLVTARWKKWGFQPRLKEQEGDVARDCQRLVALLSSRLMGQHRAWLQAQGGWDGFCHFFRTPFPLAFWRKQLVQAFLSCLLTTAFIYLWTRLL

Nc1ccc(S(=O)(=O)O)c2cccc(O)c12
EC50 (Bcl-2-like protein 10): 1.05 µM (active)

O=[N+]([O-])c1ccccc1C1Nc2cccc3cccc(c23)N1
CC50 (HeLa): > 99 µM (not active) | CC50 [1]: 14.6 µM (active) | IC50 (cells): 27.2 µM (active)

Cc1ccc(COC(=O)c2nn(-c3ccccc3)nc2N)cc1
IC50 [2]: 10.6 µM (not active) | IC50 [3]: 12 µM (not active)

Cc1ccc(C)c(NS(=O)(=O)c2cc(C(=O)Nc3ccccc3-c3ccccc3)ccc2C)c1
IC50 [4]: > 35 µM (not active) | IC50 [5]: 0.298 µM (active)

CCOc1ccccc1-c1nc(-c2ccc(NC(=O)c3ccc(Br)o3)cc2)no1
EC50 (Estrogen receptor): 12.7 µM (active)

Cc1cc(C(=O)OCC(=O)c2c(N)n(C)c(=O)n(C)c2=O)c(C)n1-c1ccccc1
IC50 [6]: 13.1 µM (not active) | IC50 [7]: > 111 µM (not active)

CC(C)NC(=O)/C(C#N)=C\c1ccc(N(C)C)o1
EC50 [8]: > 100 µM (active)

C=CCn1c(COc2ccc3c(c2)CCCC3)nnc1SCC(=O)Nc1cccc(SC)c1
IC50 [9]: > 100 µM (active)

Nc1c(C(=O)Nc2cccc(C(=O)O)c2)sc2nc3c(cc12)CCCC3
IC50 [10]: > 39.8 µM (not active) | AC50 (Trypsin): 10.5 µM (active) | AC50 (CAAX prenyl protease 2): 47.8 µM (active) | IC50 (Caspase-3): 71.6 µM (active) | IC50 [11]: 7.47 µM (active) | IC50 [12]: 15.1 µM (active) | IC50 [13]: 31 µM (active) | AC50 [14]: 3.06 µM (active) | AC50 [15]: 3.29 µM (active)

Cn1cnnc1SCc1ccc(C(=O)N/N=C(\CCC(=O)O)c2ccc(C(C)(C)C)cc2)cc1
IC50 [16]: > 50 µM (not active) | IC50 [17]: > 50 µM (not active) | AC50 [18]: 0.755 µM (active)

COc1cc(-c2nc(-c3ccccc3)c(-c3ccccc3)[nH]2)cc(OC)c1O
IC50 (NADPH oxidase 1): 0.517 µM (active)
